Test [1] addresses Dual specificity protein kinase TTK (Homo sapiens) (UniProt P33981). Put plainly: Selectivity interaction (KinomeScan (DiscoverX)) EUB0000138c TTK. The conditions noted are these: at 100 nM.
Test [2] concerns the target Cyclin-dependent kinase 19 (Homo sapiens) (UniProt Q9BWU1). Particulars: at 1 µM.
In test [3] the target is Tyrosine-protein kinase receptor Tie-1 (Homo sapiens) (UniProt P35590). The conditions noted are these: at 1 µM.
Test [4] deals with Mast/stem cell growth factor receptor Kit (Homo sapiens, UniProt P10721). Particulars: at 1 µM.
Test [5] deals with T1, Platelet-derived growth factor receptor beta (Homo sapiens, UniProt P09619). Particulars: at 1 µM.
Test [6] deals with T1, Platelet-derived growth factor receptor beta. Kind of test: Selectivity interaction (KinomeScan (DiscoverX)) EUB0000698a PDGFRB. The conditions noted are these: at 10 µM.
The target of test [7] is Serine/threonine-protein kinase RIO3 (Homo sapiens) (UniProt O14730). Put plainly: Selectivity interaction (KinomeScan (DiscoverX)) EUB0000698a RIOK3. Particulars: at 10 µM.
Test [8] concerns the target T2, Tyrosine-protein kinase SYK (Homo sapiens, UniProt P43405). Put plainly: Selectivity interaction (KinomeScan (DiscoverX)) EUB0000305b SYK. Particulars: CellTiter-Glo assay (Promega, proliferation in ACHN cells): IC50 = […] nM, https://www.sgc-ffm.uni-frankfurt.de/#!specificprobeove, at 100 nM.
Test [9] concerns the target Casein kinase II subunit alpha' (Homo sapiens) (UniProt P19784). Kind of test: Selectivity interaction (KinomeScan (DiscoverX)) EUB0000702a CSNK2A2. Particulars: at 1 µM.
Test [10] deals with T2, Tyrosine-protein kinase SYK. Put plainly: Selectivity interaction (KinomeScan (DiscoverX)) EUB0000702a SYK. Particulars: at 1 µM.
For test [11], the target named is eIF-2-alpha kinase GCN2 (Homo sapiens) (UniProt Q9P2K8). Kind of test: Selectivity interaction (KinomeScan (DiscoverX)) EUB0000702a EIF2AK4. The conditions noted are these: at 1 µM.
Test [12] deals with Hepatocyte growth factor receptor (Homo sapiens), P08581 [M1250T]. Put plainly: (§1) Selectivity interaction (KinomeScan (DiscoverX)) EUB0000702a MET. The conditions noted are these: at 1 µM.
Test [13] deals with Hepatocyte growth factor receptor (Homo sapiens), P08581 [Y1235D]. Described as §1. Particulars: at 1 µM.
In test [14] the target is Dual specificity protein kinase CLK4 (Homo sapiens) (UniProt Q9HAZ1). Kind of test: Selectivity interaction (KinomeScan (DiscoverX)) EUB0000702a CLK4. The conditions noted are these: at 1 µM.
In test [15] the target is Cyclin-dependent kinase 7 (Homo sapiens) (UniProt P50613). Put plainly: Selectivity interaction (KinomeScan (DiscoverX)) EUB0000702a CDK7. The conditions noted are these: at 1 µM.
Test [16] addresses T3, Mitogen-activated protein kinase kinase kinase 19 (Homo sapiens) (UniProt Q56UN5).
T3 sequence (whole entry): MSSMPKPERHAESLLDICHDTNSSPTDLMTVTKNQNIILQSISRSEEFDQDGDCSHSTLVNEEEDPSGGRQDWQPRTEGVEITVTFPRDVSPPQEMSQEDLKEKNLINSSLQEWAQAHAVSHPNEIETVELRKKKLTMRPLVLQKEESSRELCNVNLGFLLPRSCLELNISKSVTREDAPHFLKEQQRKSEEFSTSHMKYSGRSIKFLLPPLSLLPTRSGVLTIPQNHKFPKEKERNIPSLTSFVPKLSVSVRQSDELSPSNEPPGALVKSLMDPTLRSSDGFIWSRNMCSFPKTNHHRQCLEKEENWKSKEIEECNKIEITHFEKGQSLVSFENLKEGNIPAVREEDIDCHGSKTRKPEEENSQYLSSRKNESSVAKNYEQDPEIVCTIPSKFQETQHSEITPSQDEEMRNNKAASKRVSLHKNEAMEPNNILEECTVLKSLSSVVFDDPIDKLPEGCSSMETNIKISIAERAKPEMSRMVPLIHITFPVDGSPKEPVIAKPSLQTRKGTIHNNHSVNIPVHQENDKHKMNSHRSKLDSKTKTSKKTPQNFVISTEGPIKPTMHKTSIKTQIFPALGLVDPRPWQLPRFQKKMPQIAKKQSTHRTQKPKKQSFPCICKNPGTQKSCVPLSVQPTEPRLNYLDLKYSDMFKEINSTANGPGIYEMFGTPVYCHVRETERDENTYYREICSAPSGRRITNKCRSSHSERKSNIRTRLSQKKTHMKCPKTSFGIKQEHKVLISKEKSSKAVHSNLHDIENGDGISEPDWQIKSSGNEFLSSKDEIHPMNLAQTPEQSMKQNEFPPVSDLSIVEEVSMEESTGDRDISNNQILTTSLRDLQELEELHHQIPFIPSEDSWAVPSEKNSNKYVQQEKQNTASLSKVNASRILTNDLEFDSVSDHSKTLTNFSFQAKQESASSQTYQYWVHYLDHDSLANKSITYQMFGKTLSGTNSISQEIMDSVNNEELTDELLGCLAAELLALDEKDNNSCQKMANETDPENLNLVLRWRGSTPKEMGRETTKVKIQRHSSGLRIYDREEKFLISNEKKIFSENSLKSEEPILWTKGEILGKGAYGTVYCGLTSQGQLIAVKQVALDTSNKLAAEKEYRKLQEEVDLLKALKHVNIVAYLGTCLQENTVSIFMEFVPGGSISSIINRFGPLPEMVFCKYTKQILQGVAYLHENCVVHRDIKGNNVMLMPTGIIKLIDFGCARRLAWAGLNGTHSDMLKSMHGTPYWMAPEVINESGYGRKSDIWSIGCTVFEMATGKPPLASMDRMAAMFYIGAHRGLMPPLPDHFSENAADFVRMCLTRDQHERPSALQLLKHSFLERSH
Kind of test: Selectivity interaction (KinomeScan (DiscoverX)) EUB0000702a MAP3K19. Particulars: at 1 µM.

The target in test [17] is Aurora kinase A (Homo sapiens) (UniProt O14965). Put plainly: Selectivity interaction (KinomeScan (DiscoverX)) EUB0000178b STK6. Particulars: at 1 µM.
The test system of test [18] is Tyrosine-protein kinase ABL1 (Homo sapiens), P00519 [Q252H]. Put plainly: (§2) Selectivity interaction (KinomeScan (DiscoverX)) EUB0000178b ABL1. Particulars: at 1 µM.
Test [19] concerns Tyrosine-protein kinase ABL1 (Homo sapiens), P00519 [T315I]. Described as §2. The conditions noted are these: at 1 µM.
The test system of test [20] is Tyrosine-protein kinase ABL1 (Homo sapiens), P00519 [M351T]. The test is described as §2. Particulars: at 1 µM.
The target of test [21] is Serine/threonine-protein kinase Chk1 (Homo sapiens) (UniProt O14757). Put plainly: Selectivity interaction (Kinase panel (University of Dundee)) EUB0000169b CHEK1. Particulars: at 10 µM.
The target in test [22] is Mitogen-activated protein kinase 11 (Homo sapiens) (UniProt Q15759). Put plainly: Selectivity interaction (Kinase panel (University of Dundee)) EUB0000169b MAPK11. The conditions noted are these: at 10 µM.
Test [23] deals with Phosphorylase b kinase regulatory subunit alpha, liver isoform (Homo sapiens) (UniProt P46019). Kind of test: Selectivity interaction (Kinase panel (University of Dundee)) EUB0000169b PHKA2. Particulars: at 10 µM.

T1 sequence (P09619 whole entry): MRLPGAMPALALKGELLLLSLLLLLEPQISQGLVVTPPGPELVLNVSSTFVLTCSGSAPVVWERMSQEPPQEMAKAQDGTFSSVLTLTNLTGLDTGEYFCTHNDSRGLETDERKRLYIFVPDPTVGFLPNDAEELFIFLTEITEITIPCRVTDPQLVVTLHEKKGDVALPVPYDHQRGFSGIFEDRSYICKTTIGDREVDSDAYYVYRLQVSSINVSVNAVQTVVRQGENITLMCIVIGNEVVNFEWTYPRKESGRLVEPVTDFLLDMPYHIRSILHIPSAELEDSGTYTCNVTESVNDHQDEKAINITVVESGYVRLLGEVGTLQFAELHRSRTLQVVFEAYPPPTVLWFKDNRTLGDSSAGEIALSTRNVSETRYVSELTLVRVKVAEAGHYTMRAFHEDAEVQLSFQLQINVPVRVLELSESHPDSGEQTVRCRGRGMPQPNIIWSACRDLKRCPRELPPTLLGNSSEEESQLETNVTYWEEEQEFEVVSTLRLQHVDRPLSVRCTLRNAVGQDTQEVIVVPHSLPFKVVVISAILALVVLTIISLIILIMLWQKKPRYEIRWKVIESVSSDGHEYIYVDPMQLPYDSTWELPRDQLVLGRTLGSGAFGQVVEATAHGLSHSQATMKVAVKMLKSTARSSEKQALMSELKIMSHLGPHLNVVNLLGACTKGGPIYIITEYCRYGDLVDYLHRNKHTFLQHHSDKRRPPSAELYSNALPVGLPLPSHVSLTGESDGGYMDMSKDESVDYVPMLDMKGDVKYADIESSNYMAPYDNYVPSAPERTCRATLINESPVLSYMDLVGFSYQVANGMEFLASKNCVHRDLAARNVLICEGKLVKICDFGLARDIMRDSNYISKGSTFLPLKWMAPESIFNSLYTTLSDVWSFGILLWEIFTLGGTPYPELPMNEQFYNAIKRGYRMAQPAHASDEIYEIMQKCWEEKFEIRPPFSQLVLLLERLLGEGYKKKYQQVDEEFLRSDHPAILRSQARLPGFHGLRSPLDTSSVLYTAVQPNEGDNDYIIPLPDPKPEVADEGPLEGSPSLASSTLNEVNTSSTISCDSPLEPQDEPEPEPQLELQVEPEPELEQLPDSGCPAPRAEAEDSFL
Mast/stem cell growth factor receptor Kit, sequence (P10721 whole entry): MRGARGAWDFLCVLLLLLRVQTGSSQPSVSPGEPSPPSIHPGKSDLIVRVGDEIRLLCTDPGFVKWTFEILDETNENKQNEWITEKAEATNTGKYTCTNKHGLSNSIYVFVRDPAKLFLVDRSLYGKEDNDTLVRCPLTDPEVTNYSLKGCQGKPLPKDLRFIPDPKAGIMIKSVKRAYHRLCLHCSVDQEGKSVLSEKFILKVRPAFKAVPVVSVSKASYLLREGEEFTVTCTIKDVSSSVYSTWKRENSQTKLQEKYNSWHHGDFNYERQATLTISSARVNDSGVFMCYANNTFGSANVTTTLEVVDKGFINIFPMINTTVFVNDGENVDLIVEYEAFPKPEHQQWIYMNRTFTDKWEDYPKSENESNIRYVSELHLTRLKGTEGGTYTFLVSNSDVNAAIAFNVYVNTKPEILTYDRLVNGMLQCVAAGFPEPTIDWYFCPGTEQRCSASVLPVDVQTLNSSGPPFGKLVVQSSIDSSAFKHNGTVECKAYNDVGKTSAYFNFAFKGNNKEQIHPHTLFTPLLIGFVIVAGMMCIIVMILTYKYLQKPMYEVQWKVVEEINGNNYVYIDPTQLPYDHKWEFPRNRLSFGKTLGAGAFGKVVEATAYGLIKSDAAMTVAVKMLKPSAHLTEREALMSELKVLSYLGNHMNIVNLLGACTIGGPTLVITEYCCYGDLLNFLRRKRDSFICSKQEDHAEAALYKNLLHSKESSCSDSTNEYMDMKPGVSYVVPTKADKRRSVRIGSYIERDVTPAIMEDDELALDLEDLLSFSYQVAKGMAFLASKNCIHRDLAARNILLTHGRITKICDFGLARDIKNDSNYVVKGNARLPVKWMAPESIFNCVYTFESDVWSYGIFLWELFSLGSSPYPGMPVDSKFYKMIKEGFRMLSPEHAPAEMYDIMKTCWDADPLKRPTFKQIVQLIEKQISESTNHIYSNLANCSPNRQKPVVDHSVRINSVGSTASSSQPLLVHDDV
Serine/threonine-protein kinase RIO3 (Homo sapiens), sequence (O14730 whole entry): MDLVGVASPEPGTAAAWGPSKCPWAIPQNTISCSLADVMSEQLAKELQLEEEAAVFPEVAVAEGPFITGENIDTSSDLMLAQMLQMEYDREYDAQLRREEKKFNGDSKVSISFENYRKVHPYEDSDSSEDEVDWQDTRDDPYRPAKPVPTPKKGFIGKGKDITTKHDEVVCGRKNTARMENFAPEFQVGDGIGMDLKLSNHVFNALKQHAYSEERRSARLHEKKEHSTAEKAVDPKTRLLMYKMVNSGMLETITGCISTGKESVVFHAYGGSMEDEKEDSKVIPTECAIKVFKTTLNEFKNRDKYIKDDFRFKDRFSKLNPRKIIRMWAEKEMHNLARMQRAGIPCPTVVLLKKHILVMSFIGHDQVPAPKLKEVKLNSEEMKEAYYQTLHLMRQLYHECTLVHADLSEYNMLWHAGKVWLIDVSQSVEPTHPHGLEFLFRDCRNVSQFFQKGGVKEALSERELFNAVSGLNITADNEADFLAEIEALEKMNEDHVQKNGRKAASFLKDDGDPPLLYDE
Cyclin-dependent kinase 7 (Homo sapiens), sequence (P50613 whole entry): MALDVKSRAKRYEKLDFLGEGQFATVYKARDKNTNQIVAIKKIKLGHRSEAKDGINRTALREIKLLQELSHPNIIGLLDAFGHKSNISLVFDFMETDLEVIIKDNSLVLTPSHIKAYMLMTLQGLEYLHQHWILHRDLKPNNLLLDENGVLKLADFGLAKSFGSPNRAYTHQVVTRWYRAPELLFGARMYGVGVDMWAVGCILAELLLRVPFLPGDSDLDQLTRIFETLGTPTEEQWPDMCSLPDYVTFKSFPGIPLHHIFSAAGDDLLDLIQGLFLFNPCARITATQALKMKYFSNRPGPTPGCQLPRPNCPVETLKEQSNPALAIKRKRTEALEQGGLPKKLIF
Hepatocyte growth factor receptor (Homo sapiens), P08581 [M1250T], sequence (P08581 whole entry M1250T): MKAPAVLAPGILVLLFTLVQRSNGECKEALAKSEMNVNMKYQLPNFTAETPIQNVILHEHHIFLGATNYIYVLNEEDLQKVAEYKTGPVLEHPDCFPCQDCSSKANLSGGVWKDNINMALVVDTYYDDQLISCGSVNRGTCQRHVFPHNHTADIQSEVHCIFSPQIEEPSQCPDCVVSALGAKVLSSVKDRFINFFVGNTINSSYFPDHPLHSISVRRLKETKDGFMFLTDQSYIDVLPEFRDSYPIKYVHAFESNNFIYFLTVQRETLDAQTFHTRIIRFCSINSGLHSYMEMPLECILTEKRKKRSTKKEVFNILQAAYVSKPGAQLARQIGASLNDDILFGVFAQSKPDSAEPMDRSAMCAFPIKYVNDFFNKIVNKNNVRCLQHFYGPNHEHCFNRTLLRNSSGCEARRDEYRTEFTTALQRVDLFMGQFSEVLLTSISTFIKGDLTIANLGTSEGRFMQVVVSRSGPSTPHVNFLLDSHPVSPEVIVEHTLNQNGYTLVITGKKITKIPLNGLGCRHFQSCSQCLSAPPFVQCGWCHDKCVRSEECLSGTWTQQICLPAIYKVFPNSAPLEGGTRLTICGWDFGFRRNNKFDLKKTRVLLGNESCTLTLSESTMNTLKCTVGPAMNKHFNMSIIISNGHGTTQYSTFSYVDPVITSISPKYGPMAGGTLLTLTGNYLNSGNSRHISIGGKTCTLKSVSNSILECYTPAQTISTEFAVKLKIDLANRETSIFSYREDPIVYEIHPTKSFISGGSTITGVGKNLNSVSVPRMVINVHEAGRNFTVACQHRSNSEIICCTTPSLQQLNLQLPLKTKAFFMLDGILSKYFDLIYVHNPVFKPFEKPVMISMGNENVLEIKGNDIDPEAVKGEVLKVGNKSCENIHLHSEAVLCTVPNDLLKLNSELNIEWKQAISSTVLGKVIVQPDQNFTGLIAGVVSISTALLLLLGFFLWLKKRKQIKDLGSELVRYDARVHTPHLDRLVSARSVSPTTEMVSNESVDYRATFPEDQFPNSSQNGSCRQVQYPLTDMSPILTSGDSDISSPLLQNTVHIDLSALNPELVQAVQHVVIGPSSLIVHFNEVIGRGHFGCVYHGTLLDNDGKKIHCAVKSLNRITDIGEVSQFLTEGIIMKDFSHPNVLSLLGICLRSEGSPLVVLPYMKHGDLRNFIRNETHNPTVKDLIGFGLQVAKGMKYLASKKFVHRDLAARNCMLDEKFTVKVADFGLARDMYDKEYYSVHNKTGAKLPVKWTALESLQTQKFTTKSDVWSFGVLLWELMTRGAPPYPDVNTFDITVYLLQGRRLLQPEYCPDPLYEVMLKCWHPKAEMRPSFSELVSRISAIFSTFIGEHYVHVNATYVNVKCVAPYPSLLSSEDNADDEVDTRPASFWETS
Cyclin-dependent kinase 19 (Homo sapiens), sequence (Q9BWU1 whole entry): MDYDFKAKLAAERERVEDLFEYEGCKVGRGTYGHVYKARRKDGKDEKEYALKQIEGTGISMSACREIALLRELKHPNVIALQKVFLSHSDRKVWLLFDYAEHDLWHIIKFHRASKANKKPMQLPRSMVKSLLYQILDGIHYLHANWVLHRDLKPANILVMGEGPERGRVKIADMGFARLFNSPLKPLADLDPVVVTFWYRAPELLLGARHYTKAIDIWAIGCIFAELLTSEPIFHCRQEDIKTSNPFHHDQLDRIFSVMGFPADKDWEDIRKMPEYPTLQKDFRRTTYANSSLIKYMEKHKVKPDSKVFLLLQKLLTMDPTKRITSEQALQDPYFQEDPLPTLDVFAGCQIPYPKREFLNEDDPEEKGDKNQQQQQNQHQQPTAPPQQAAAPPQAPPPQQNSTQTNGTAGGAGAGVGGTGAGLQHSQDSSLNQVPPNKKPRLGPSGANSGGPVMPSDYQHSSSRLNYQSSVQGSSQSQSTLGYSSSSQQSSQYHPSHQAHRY

With `CNC(=O)c1ccc(Nc2ncc(C(F)(F)F)c(NCc3nccnc3N(C)S(C)(=O)=O)n2)cc1` [DEFACTINIB], the % of control in test [1] came out at 8.3%.

Take `CCOc1cn(-c2ccc(F)cc2C)nc1C(=O)Nc1ccc(Oc2ccnc3cc(OC)c(OC)cc23)c(F)c1`: the % of control in test [2], in [3], in test [4] and in [5] was less than 10% throughout.

For the compound `COc1cc2ncn(-c3cc(OCc4ccccc4C(F)(F)F)c(C(N)=O)s3)c2cc1OC` [GW843682X], the % of control in test [6] was found to be 5.3%; in [7], 4.2%.

In [8], `C[C@H](c1ccnc(Nc2nc3ccc(-c4cc(N(C)C)ncn4)cc3[nH]2)c1)N1CCN(C(=O)CC(F)(F)F)CC1` [BAY-985] returned a % of control of 31%.

For the compound `CN(c1ccnc(CNc2nc(Nc3ccc4c(c3)CC(=O)N4)ncc2C(F)(F)F)n1)S(C)(=O)=O` [PF-00911705], the % of control was determined as 66.7% in test [9]; 5.7% in test [10]; 6.7% in test [11]; 6.8% in [12]; 10% in test [13]; 1.4% in test [14]. For the same compound, the % of control in test [15] is 3.5%; in test [16], 0.4%.

Consider `CN1C(=O)c2sccc2N(C)c2nc(Nc3ccc(S(N)(=O)=O)cc3)ncc21`, for which the % of control in [17] is 0.05%; in [18], 6.8%; in test [19] it was 1.6%; in test [20], 5.5%.

Take `CC[C@@H]1C(=O)N(C)c2cnc(Nc3ccc(C(=O)NC4CCN(C)CC4)cc3OC)nc2N1C1CCCC1`: the % of control in [21] was 91%; in test [22], 97%; in [23], 60%.

(Values after ChEMBL document CHEMBL5212743, “Selectivity Literature for EUbOPEN Chemogenomics Library wave 3” (2023).)
